Each block holds one compound with its values, some of them ahead of it.
Assays:
TREM-1 [1] = target: T1, TREM-1 (Homo sapiens, UniProt Q9NP99); assay: TREM-1 reporter cell line blocking study (GFP expression by flow cytometry); assay type: cell-based; parameters: expressed in transfected cells; host or cells: TREM-1 reporter cell line (GFP read-out); conditions: for binding and activation of TREM-1 receptor on reporter cells (GFP expression): TREM-1-positive reporter cells, flow cytometry; for inhibitory effect on agonist-activated TREM-1-specific cells: preincubated with compound 4 hrs, then agonist antibody AF1278 for 24 hrs
T1 sequence (Q9NP99 21-234): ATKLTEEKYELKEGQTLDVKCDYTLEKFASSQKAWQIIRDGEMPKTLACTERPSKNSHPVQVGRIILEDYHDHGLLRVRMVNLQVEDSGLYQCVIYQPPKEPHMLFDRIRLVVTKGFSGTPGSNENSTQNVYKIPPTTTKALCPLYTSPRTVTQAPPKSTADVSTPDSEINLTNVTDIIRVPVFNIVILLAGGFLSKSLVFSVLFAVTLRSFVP
Method: FIG. 2A is a diagram showing that the engagement of human TREM-1 receptor activates a reporter cell line. […] FIG. 2C is a line graph of the flow cytometry data of FIG. 2B.
(§1) For blocking studies, TREM-1-positive cells were preincubated with each tested compounds for 4 hrs followed by stimulation with agonist antibody AF1278 for an additional 24 hrs (FIGS. 2A-2B).

neutrophils = assay: Assessment of cytotoxicity: number of neutrophils in TREM-1 agonist Ab-stimulated PBMCs; conditions: human PBMCs, compound at 50 μM 2 hrs pretreatment, TREM-1 agonist Ab 24 hrs
Method: Peripheral blood mononuclear cells (PBMCs) were isolated from healthy volunteers and were stimulated with TREM-1 agonist Ab for 24 hrs, at concentration of 4 μg/ml (red) or pretreated with indicated compounds (at 50 μM) for 2 hrs and stimulated with agonist AB at concentration of 4 pg/mlfor 24 hrs (blue)

reporter cells = assay: Cytotoxicity on TREM-1 reporter cells; assay type: cell-based; conditions: compared to Compound 118818
Method: as §1

B16F10 cells [2] = assay: Cell cycle assay via propidium iodide; assay type: cell-based, murine; conditions: B16F10 cells with or without treatment
Method: (§2) B16F10 cells were cultured in 6 well plates incubated with either vehicle alone or vehicle with VJDT at 50 μM and streaks were made using a tip when cells were at 80% confluency. Streaks were photographed at 0 hrs or 24 hrs at 100×. B16F10 cells were treated with VJDT at 50 μM concentration followed by 10 μM CFSE labeling according to manufacturer's protocol. After 48 hrs cells were analyzed by flow cytometry for CFSE intensity that will be inversely proportional to cell proliferation. Further, cell cycle assay via propidium iodide on B16F10 cells with or without VIDT treatment was performed for investigating the anti-proliferative effect of VJDT in tumor cells

TREM-1 [3] = target: T1, TREM-1; assay: TREM-1-mediated proinflammatory cytokine production by activated human neutrophils (flow cytometry); assay type: cell-based; parameters: endogenous in cells; host or cells: PBMCs from healthy human volunteers, gated on CD15/CD16 neutrophils; conditions: IL-8, IL-6, IL-12 intracellular staining, vs MH and NCI 118818
Method: Quantification (percentage) of cytokine-positive neutrophils from untreated, Morin Hydrate (MH)-treated, 118818-treated, and VJDT 8293-treated compounds (from triplicates) was performed. Cells isolated from the same healthy volunteer have been used for indicated experiments.
PBMCs were stained cell surface markers CD15 and CD16. In addition, intracellular staining for proinflammatory cytokines, such as IL-8, IL-6 and IL-12, was performed. PBMCs were gated on CD15, CD16 markers to identify the population of neutrophils.

[4] = tested on: Wild-type mice (Trem1+/+) with CCl4 injury; assay: CCl4 liver injury, inflammatory cell infiltration at early stages of liver fibrosis; assay type: in vivo; conditions: 25 mg/kg oral
Method: Wild-type mice (Trem1^+/+) were orally administered VJDT (25 mg/kg) 5 consecutive days prior to injury with CCl4 (2 ml/kg, diluted 1:4 in corn oil) (24 hrs) or one dosage of control corn oil (Sigma-Aldrich, St. Louis, MO, USA). Liver cells were isolated 24 hrs after CCl4 injury, perfused with calcium and magnesium-free 40° C. prewarmed HBSS solution (Corning Life Sciences, Corning, NY, USA) and digested with collagenase type I. The cell suspension was filtered through a 70 μm cell strainer and then centrifuged at 50 g for 5 min at 4° C. to eliminate hepatocytes. Cells remaining in the supernatant were layered on HISTOPAQUE®-1083 and centrifuged at 1000 g for 15 min at 4° C. without a break. The non-parenchymal cell fraction was washed once with PBS at 300 g for 10 min at 4° C., followed by flow cytometry.
Nonparenchymal cells isolated from Trem1^+/+ livers with CCl4 injury receiving VJDT treatment were analyzed by flow cytometry to evaluate the infiltration of myeloid cells. Liver-associated cells were classified into 3 populations: F4/80^+CD11b^− resident Kupffer cells, F4/80^+CD11b^+Ly6C^hiLy6G^lo monocyte-derived macrophages and F4/80^+CD11b^+Ly6C^loLy6G^hi inflammatory neutrophils.

[5] = tested on: B16F10 murine melanoma cell; assay: Wound healing assay (cell migration); assay type: cell-based; conditions: 50 μM, 24 hrs
Method: as §2

B16F10 cells [6] = assay: CFSE cell proliferation assay; assay type: cell-based, murine; conditions: 50 μM, 48 hrs; listed as VIDT
Method: as §2

[7] = tested on: human hepatocellular carcinoma cells (HepG2); assay: Cell proliferation, Cell Counting Kit-8 (CCK-8); assay type: cell-based; conditions: HepG2, 72 hrs treatment, n=6, read-out: IC50 to inhibit cell proliferation
Method: Cell proliferation was measured using Cell Counting Kit-8 (CCK-8, GLPBIO, Montclair, CA. Catalog No. GK10001) according to the manufacturer's instructions. HepG2 cells were seeded in a 96-well plate at 3×10^3 cells/well and incubated at 37° C. in complete medium for 24 hrs before being treated with the indicated concentrations of VIDT for 72 hrs. After treatment, cells were incubated with 10 μl CCK8 at 37° C. for 2 hrs. Absorbance at 450 nm was determined using a microplate reader. The IC50 value was calculated on the nonlinear regression fit method by the GraphPad Prism software.

Compound: N#CC1=CC2CN(Cc3ccccc3)C1C1C(=O)N(c3ccccc3)C(=O)C21 (stereo not shown) [Compound 118818, 9-Benzyl-1,3-dioxo-2-phenyl-2,3,3a,4,7,7a-hexahydro-1H-4,7-(epiminomethano) isoindole-5-carbonitrile]
- binding and activation of TREM-1 receptor on reporter cells (GFP expression) (TREM-1 [1]): significant enhancement of GFP expression
- number of neutrophils (indicating level of cytotoxicity) (neutrophils): 19,5%

Compound: Cc1ccc(NC(=O)Nc2nc3ccccc3s2)cc1NC(=O)Nc1nc2ccccc2s1 [Compound 319990]
- binding and activation of TREM-1 receptor on reporter cells (GFP expression) (TREM-1 [1]): significant enhancement of GFP expression
- cytotoxicity effect on reporter cells (reporter cells): higher cytotoxicity effect

Compound: O=c1c(O)c(-c2ccc(O)cc2O)oc2cc(O)cc(O)c12 [Morin Hydrate, 2′,3,4′,5,7-pentahydroxyflavone]
- number of neutrophils (indicating level of cytotoxicity) (neutrophils): 24.3%

- inhibitory effect on TREM-1 mediated proinflammatory cytokine production (TREM-1 [3]): much stronger inhibitory effect
- IC50 [7]: 14.7 µM
Compound: N#CC1=CC2C(=O)N(Cc3ccccc3)C1C1C(=O)N(c3ccccc3)C(=O)C21 [VJDT 8293, (3aR,7aR)-9-benzyl-1,3,8-trioxo-2-phenyl-2,3,3a,4,7,7a-hexahydro-1H-4,7-(epiminomethano) isoindole-5-carbonitrile]
- cell cycle arrest (B16F10 cells [2]): significant cell cycle arrest in the S and G2 phases
- infiltration of monocyte-derived macrophages in liver ([4]; 5 consecutive days prior to CCl4 (2 ml/kg), 24 hrs after injury, p<0.001): 3-6%
- infiltration of inflammatory neutrophils in liver ([4]; 5 consecutive days prior to CCl4 (2 ml/kg), 24 hrs after injury, p<0.01): 8-10%
- protective effect to liver injury ([4]; CCl4 injury): strong protective effect
- cytokine secretion in neutrophils ([4]; compared to control group (DMSO vehicle)): significantly decreased cytokine secretion
- cell migration in wound healing assay [5]: significantly inhibits
- cell migration in wound healing assay ([5]; listed as VIDT): significantly inhibited
- cell proliferation (CFSE intensity) (B16F10 cells [6]): significantly inhibites

- inhibitory effect on agonist-activated TREM-1-specific cells (TREM-1 [1]): did not provide any inhibitory effect
Compound: Cc1c(O)ccc2c(O)c(NC(=O)c3ccc4c(c3)CCC(C)(C)O4)c(=O)oc12 [compound 5157]
- binding and activation of TREM-1 receptor on reporter cells (GFP expression) (TREM-1 [1]): significant enhancement of GFP expression

- inhibitory effect on agonist-activated TREM-1-specific cells (TREM-1 [1]): did not provide any inhibitory effect
Compound: O=C(O)Cc1ccc(N=Nc2c(O)c(C(=O)O)cc3ccccc23)cc1 [compound 156563]
- binding and activation of TREM-1 receptor on reporter cells (GFP expression) (TREM-1 [1]): significant enhancement of GFP expression

Source: patent publication US20250270205A1, “COMPOSITIONS AND METHODS FOR INHIBITING TREM-1” (AUGUSTA UNIVERSITY RESEARCH INSTITUTE, INC., priority 2020, published 2025)
